# Tested on: HIV in the HTLV-1 transformed cell line MT-4
# Assay: organism not typed
# Type: cell-based
# Details: MT4, 96 h, MT-4 cells; luciferase/cell titer glo readout after 96 hours; 10 point dose response
row,Structure (SMILES),IC50 [nM]
1,"Cc1ccc(F)cc1C(=O)N1Cc2c(C)c(-c3cc(F)c4c(c3C)CCCO4)c([C@H](OC(C)(C)C)C(=O)O)c(C)c2C1 (atropisomer, axis not shown; (M)) [Example 177, (S)-2-(tert-butoxy)-2-((M)-2-(5-fluoro-2-methylbenzoyl)-6-(8-fluoro-5-methylchroman-6-yl)-4,7-dimethylisoindolin-5-yl)acetic acid]",2
2,"Cc1cc(F)cc(C(=O)N2Cc3c(C)c(-c4cc(F)c5c(c4C)CCCO5)c([C@H](OC(C)(C)C)C(=O)O)c(C)c3C2)c1 (atropisomer, axis not shown; (M)) [Example 178, (S)-2-(tert-butoxy)-2-((M)-2-(3-fluoro-5-methylbenzoyl)-6-(8-fluoro-5-methylchroman-6-yl)-4,7-dimethylisoindolin-5-yl)acetic acid]",2
3,"COc1ccc(F)c(C(=O)N2Cc3c(C)c(-c4cc(F)c5c(c4C)CCCO5)c([C@H](OC(C)(C)C)C(=O)O)c(C)c3C2)c1 (atropisomer, axis not shown; (M)) [Example 179, (S)-2-(tert-butoxy)-2-((M)-2-(2-fluoro-5-methoxybenzoyl)-6-(8-fluoro-5-methylchroman-6-yl)-4,7-dimethylisoindolin-5-yl)acetic acid]",4
4,"COc1cc(C(=O)N2Cc3c(C)c(-c4cc(F)c5c(c4C)CCCO5)c([C@H](OC(C)(C)C)C(=O)O)c(C)c3C2)ccc1F (atropisomer, axis not shown; (M)) [Example 180, (S)-2-(tert-butoxy)-2-((M)-2-(4-fluoro-3-methoxybenzoyl)-6-(8-fluoro-5-methylchroman-6-yl)-4,7-dimethylisoindolin-5-yl)acetic acid]",4
5,"Cc1c(-c2c(C)c3c(c(C)c2[C@H](OC(C)(C)C)C(=O)O)CN(C(=O)c2cc(F)cc(Cl)c2)C3)cc(F)c2c1CCCO2 (atropisomer, axis not shown; (M)) [Example 181, (S)-2-(tert-butoxy)-2-((M)-2-(3-chloro-5-fluorobenzoyl)-6-(8-fluoro-5-methylchroman-6-yl)-4,7-dimethylisoindolin-5-yl)acetic acid]",5
6,"Cc1cncc(C(=O)N2Cc3c(C)c(-c4cc(F)c5c(c4C)CCCO5)c([C@H](OC(C)(C)C)C(=O)O)c(C)c3C2)c1 (atropisomer, axis not shown; (M)) [Example 182, (S)-2-(tert-butoxy)-2-((M)-6-(8-fluoro-5-methylchroman-6-yl)-4,7-dimethyl-2-(5-methylnicotinoyl)isoindolin-5-yl)acetic acid]",5
7,"COc1ccc(C)cc1C(=O)N1Cc2c(C)c(-c3cc(F)c4c(c3C)CCCO4)c([C@H](OC(C)(C)C)C(=O)O)c(C)c2C1 (atropisomer, axis not shown; (M)) [Example 183, (S)-2-(tert-butoxy)-2-((M)-6-(8-fluoro-5-methylchroman-6-yl)-2-(2-methoxy-5-methylbenzoyl)-4,7-dimethylisoindolin-5-yl)acetic acid]",4
8,"Cc1c(-c2c(C)c3c(c(C)c2[C@H](OC(C)(C)C)C(=O)O)CN(C(=O)c2ccccn2)C3)cc(F)c2c1CCCO2 (atropisomer, axis not shown; (M)) [Example 184, (S)-2-(tert-butoxy)-2-((M)-6-(8-fluoro-5-methylchroman-6-yl)-4,7-dimethyl-2-picolinoylisoindolin-5-yl)acetic acid]",2
9,"Cc1ccc(Cl)cc1C(=O)N1Cc2c(C)c(-c3cc(F)c4c(c3C)CCCO4)c([C@H](OC(C)(C)C)C(=O)O)c(C)c2C1 (atropisomer, axis not shown; (M)) [Example 185, (S)-2-(tert-butoxy)-2-((M)-2-(5-chloro-2-methylbenzoyl)-6-(8-fluoro-5-methylchroman-6-yl)-4,7-dimethylisoindolin-5-yl)acetic acid]",4
10,"Cc1c(-c2c(C)c3c(c(C)c2[C@H](OC(C)(C)C)C(=O)O)CN(C(=O)c2ccc(F)c(F)c2)C3)cc(F)c2c1CCCO2 (atropisomer, axis not shown; (M)) [Example 186, (S)-2-(tert-butoxy)-2-((M)-2-(3,4-difluorobenzoyl)-6-(8-fluoro-5-methylchroman-6-yl)-4,7-dimethylisoindolin-5-yl)acetic acid]",2
11,"COc1ccc(C(=O)N2Cc3c(C)c(-c4cc(F)c5c(c4C)CCCO5)c([C@H](OC(C)(C)C)C(=O)O)c(C)c3C2)cc1F (atropisomer, axis not shown; (M)) [Example 187, (S)-2-(tert-butoxy)-2-((M)-2-(3-fluoro-4-methoxybenzoyl)-6-(8-fluoro-5-methylchroman-6-yl)-4,7-dimethylisoindolin-5-yl)acetic acid]",3
12,"Cc1c(-c2c(C)c3c(c(C)c2[C@H](OC(C)(C)C)C(=O)O)CN(C(=O)c2cc(Cl)c(F)c(Cl)c2)C3)cc(F)c2c1CCCO2 (atropisomer, axis not shown; (M)) [Example 188, (S)-2-(tert-butoxy)-2-((M)-2-(3,5-dichloro-4-fluorobenzoyl)-6-(8-fluoro-5-methylchroman-6-yl)-4,7-dimethylisoindolin-5-yl)acetic acid]",4
13,"Cc1ccc(C(=O)N2Cc3c(C)c(-c4cc(F)c5c(c4C)CCCO5)c([C@H](OC(C)(C)C)C(=O)O)c(C)c3C2)c(C)c1 (atropisomer, axis not shown; (M)) [Example 189, (S)-2-(tert-butoxy)-2-((M)-2-(2,4-dimethylbenzoyl)-6-(8-fluoro-5-methylchroman-6-yl)-4,7-dimethylisoindolin-5-yl)acetic acid]",4
14,"Cc1ccc(C(=O)N2Cc3c(C)c(-c4cc(F)c5c(c4C)CCCO5)c([C@H](OC(C)(C)C)C(=O)O)c(C)c3C2)cc1 (atropisomer, axis not shown; (M)) [Example 190, (S)-2-(tert-butoxy)-2-((M)-6-(8-fluoro-5-methylchroman-6-yl)-4,7-dimethyl-2-(4-methylbenzoyl)isoindolin-5-yl)acetic acid]",5
15,"Cc1cc(C)cc(C(=O)N2Cc3c(C)c(-c4cc(F)c5c(c4C)CCCO5)c([C@H](OC(C)(C)C)C(=O)O)c(C)c3C2)c1 (atropisomer, axis not shown; (M)) [Example 191, (S)-2-(tert-butoxy)-2-((M)-2-(3,5-dimethylbenzoyl)-6-(8-fluoro-5-methylchroman-6-yl)-4,7-dimethylisoindolin-5-yl)acetic acid]",2
16,"COc1ccc(C(=O)N2Cc3c(C)c(-c4cc(F)c5c(c4C)CCCO5)c([C@H](OC(C)(C)C)C(=O)O)c(C)c3C2)cc1C (atropisomer, axis not shown; (M)) [Example 192, (S)-2-(tert-butoxy)-2-((M)-6-(8-fluoro-5-methylchroman-6-yl)-2-(4-methoxy-3-methylbenzoyl)-4,7-dimethylisoindolin-5-yl)acetic acid]",5
17,"Cc1cccc(C(=O)N2Cc3c(C)c(-c4cc(F)c5c(c4C)CCCO5)c([C@H](OC(C)(C)C)C(=O)O)c(C)c3C2)c1C (atropisomer, axis not shown; (M)) [Example 193, (S)-2-(tert-butoxy)-2-((M)-2-(2,3-dimethylbenzoyl)-6-(8-fluoro-5-methylchroman-6-yl)-4,7-dimethylisoindolin-5-yl)acetic acid]",5
18,"Cc1c(-c2c(C)c3c(c(C)c2[C@H](OC(C)(C)C)C(=O)O)CN(C(=O)c2cc(F)c(F)c(Cl)c2)C3)cc(F)c2c1CCCO2 (atropisomer, axis not shown; (M)) [Example 194, (S)-2-(tert-butoxy)-2-((M)-2-(3-chloro-4,5-difluorobenzoyl)-6-(8-fluoro-5-methylchroman-6-yl)-4,7-dimethylisoindolin-5-yl)acetic acid]",11
19,"COc1c(F)cccc1C(=O)N1Cc2c(C)c(-c3cc(F)c4c(c3C)CCCO4)c([C@H](OC(C)(C)C)C(=O)O)c(C)c2C1 (atropisomer, axis not shown; (M)) [Example 195, (S)-2-(tert-butoxy)-2-((M)-2-(3-fluoro-2-methoxybenzoyl)-6-(8-fluoro-5-methylchroman-6-yl)-4,7-dimethylisoindolin-5-yl)acetic acid]",3
20,"COc1ccc(C(=O)N2Cc3c(C)c(-c4cc(F)c5c(c4C)CCCO5)c([C@H](OC(C)(C)C)C(=O)O)c(C)c3C2)cc1 (atropisomer, axis not shown; (M)) [Example 196, (S)-2-(tert-butoxy)-2-((M)-6-(8-fluoro-5-methylchroman-6-yl)-2-(4-methoxybenzoyl)-4,7-dimethylisoindolin-5-yl)acetic acid]",2
21,"Cc1cccc(F)c1C(=O)N1Cc2c(C)c(-c3cc(F)c4c(c3C)CCCO4)c([C@H](OC(C)(C)C)C(=O)O)c(C)c2C1 (atropisomer, axis not shown; (M)) [Example 197, (S)-2-(tert-butoxy)-2-((M)-6-(8-fluoro-5-methylchroman-6-yl)-2-(2-fluoro-6-methylbenzoyl)-4,7-dimethylisoindolin-5-yl)acetic acid]",4
22,"Cc1c(-c2c(C)c3c(c(C)c2[C@H](OC(C)(C)C)C(=O)O)CN(C(=O)c2ccc(Cl)cc2)C3)cc(F)c2c1CCCO2 (atropisomer, axis not shown; (M)) [Example 198, (S)-2-(tert-butoxy)-2-((M)-2-(4-chlorobenzoyl)-6-(8-fluoro-5-methylchroman-6-yl)-4,7-dimethylisoindolin-5-yl)acetic acid]",5
23,"COc1ccccc1C(=O)N1Cc2c(C)c(-c3cc(F)c4c(c3C)CCCO4)c([C@H](OC(C)(C)C)C(=O)O)c(C)c2C1 (atropisomer, axis not shown; (M)) [Example 199, (S)-2-(tert-butoxy)-2-((M)-6-(8-fluoro-5-methylchroman-6-yl)-2-(2-methoxybenzoyl)-4,7-dimethylisoindolin-5-yl)acetic acid]",4
24,"COc1cc(C)ccc1C(=O)N1Cc2c(C)c(-c3cc(F)c4c(c3C)CCCO4)c([C@H](OC(C)(C)C)C(=O)O)c(C)c2C1 (atropisomer, axis not shown; (M)) [Example 200, (S)-2-(tert-butoxy)-2-((M)-6-(8-fluoro-5-methylchroman-6-yl)-2-(2-methoxy-4-methylbenzoyl)-4,7-dimethylisoindolin-5-yl)acetic acid]",11

# — patent US10112899B2 (ViiV HEALTHCARE UK LIMITED, priority 2014, dated 2018)
